Results: BindingDB's records for doi:10.1021/jm990412m (University of Queensland, 2000)
Residues, ends and D or L forms follow the SMILES beside them.

Assay: Binding affinity against Protease

Ki: 600 nM
SMILES: CSCC[C@H](NC(=O)[C@H](CCC(=O)O)NC(=O)[C@H](CC(=O)O)NC(C)=O)C(=O)N[C@@H](CCC(=O)O)C(=O)N[C@@H](CCC(=O)O)C(=O)N[C@@H](CS)C(=O)O [AcAsp-Glu-Met-Glu-Glu-Cys] (Ac-DEMEEC-OH)
